The values below come from paper PMC4102012 (Current chemical biology, 2013).

Usually IC50 stands for the point on the concentration scale where inhibition reaches its midpoint. Low readings indicate higher potency, high ones lower potency.

Data set [1] concerns the target T1, human porphobilinogen synthase (HsPBGS) (Homo sapiens, UniProt P13716, C162A/K59N).
T1 sequence (P13716 1-330 K59N/C162A): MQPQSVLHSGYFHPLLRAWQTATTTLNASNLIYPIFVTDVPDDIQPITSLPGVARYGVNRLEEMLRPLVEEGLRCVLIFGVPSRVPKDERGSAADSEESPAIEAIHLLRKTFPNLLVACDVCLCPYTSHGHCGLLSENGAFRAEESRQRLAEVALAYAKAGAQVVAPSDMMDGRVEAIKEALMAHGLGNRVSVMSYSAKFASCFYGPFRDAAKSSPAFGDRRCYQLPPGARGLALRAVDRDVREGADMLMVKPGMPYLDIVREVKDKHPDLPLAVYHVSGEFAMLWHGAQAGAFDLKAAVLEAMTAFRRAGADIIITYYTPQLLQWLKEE
Description: biochemical. The data set is classed as biochemical.

The target of data set [2] is T2, HsPBGS oligomeric equilibrium (hexamer/octamer) (Homo sapiens, UniProt P13716, C162A/K59N).
T2 sequence (P13716 1-330 K59N/C162A): T1 sequence (P13716 1-330 K59N/C162A)
Particulars: for Effect on HsPBGS oligomeric distribution, in words: native PAGE.

Data set [3] deals with T2, HsPBGS oligomeric equilibrium (hexamer/octamer). Description: Initial native PAGE screen of the NTP library. The settings on record: 2 mM compound, 40 °C 30 min.
In data set [4] the target is T3, PBGS from Pisum sativum (green pea) (Pisum sativum, UniProt P30124).
T3 sequence (P30124 1-398): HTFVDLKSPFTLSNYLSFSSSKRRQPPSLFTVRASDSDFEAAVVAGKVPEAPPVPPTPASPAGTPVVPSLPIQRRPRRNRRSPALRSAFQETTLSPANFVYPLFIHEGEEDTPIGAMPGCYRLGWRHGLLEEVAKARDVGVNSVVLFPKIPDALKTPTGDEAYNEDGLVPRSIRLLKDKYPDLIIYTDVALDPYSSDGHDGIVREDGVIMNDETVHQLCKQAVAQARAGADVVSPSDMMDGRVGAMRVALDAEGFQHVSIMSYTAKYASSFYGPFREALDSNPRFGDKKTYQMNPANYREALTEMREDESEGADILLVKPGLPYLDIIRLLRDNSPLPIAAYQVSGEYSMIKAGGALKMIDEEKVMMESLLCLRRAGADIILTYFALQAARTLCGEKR
As to the kind of experiment: Inhibition of PBGS from Pisum sativum. Format: biochemical. The settings on record: data not shown.

Data set [5] addresses PBGS from Pseudomonas aeruginosa (Pseudomonas aeruginosa, UniProt Q59643). Description: Inhibition of PBGS from Pseudomonas aeruginosa. The data set is classed as biochemical. The settings on record: data not shown.
Data set [6] has as its system PBGS from Yersinia enterocolitica. Description: Inhibition of PBGS from Yersinia enterocolitica. Format: biochemical. The settings on record: data not shown.
The test system of data set [7] is HsPBGS. Particulars: Johns Hopkins Clinical Compounds Library, native PAGE; ref [15]; cited from earlier work.
The conditions of data set [8]: reagents compatible with the HsPBGS activity assay.
Setting [9] is: percentage of HsPBGS hexamer at 20 mM compound, 42 °C 1 h, no substrate.
[10] abbreviates: fit of the inhibition curve, 0 = hyperbolic decay to zero.
[11] abbreviates: preincubation 42 °C 1 h, 10 μg/mL HsPBGS, 10 mM substrate, final pH 7.8.
The mark [12] stands for this setting: at 3 mM compound, sum of hexameric and dimeric bands (~2:1) (footnote f).
The mark [13] stands for this setting: at 2 mM compound (highest concentration, footnote d).

Molecules are shown by their SMILES. “And” between values parts separate entries of the source, which are not always exact repeats. Identical values can stand only once. Like-named read-outs stand apart in the source and are kept apart here.

PBGS from Pseudomonas aeruginosa, sequence (Q59643 whole entry): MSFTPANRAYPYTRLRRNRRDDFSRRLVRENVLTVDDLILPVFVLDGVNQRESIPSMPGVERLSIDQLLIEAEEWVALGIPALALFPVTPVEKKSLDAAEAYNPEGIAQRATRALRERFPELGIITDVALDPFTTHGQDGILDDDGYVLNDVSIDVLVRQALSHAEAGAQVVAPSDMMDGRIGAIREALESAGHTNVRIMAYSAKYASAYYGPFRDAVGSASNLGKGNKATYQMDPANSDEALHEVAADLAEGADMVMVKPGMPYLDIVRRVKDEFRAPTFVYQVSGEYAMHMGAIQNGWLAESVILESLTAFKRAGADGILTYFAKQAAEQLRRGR

Consider `O=Cc1ccc(Cl)cc1Cl` [2,4-Dichlorobenzaldehyde], for which, in data set [1], the IC50 was determined as 107 ± 4 µM and the “Inhibition of HsPBGS activity, in words” value is “very poor inhibitors of HsPBGS activity”. In addition, the “Effect on HsPBGS oligomeric distribution, in words” value (from here on “Effect”) in data set [2] is listed as “very effective at stabilizing the HsPBGS hexamer”. The “Mole Fraction Hexamer max (obsd)” value in data set [2] (setting [9]) is given as 86.2 ± 0.7%. The “Result of initial screen (increase of mole fraction of hexamer)” value in data set [3] is reported as “preliminary hits”.

Consider `O=Cc1c(Cl)cccc1Cl` [2,6-Dichlorobenzaldehyde], for which, in data set [1], the “FAmin (minimum fractional activity derived from the titration)” value amounted to 0% and the IC50 was 15.2 ± 1.5 µM. The “Mole Fraction Hexamer max (obsd)” value in data set [2] was 100% and 100 ± 0%.

Regarding `O=Cc1ccccc1Cl` [2-Chlorobenzaldehyde], the IC50 in data set [1] worked out at 44.6 ± 4.9 µM. Besides, the “FAmin (minimum fractional activity derived from the titration)” value in data set [1] (setting [10]) came out at 0%. Further, the “Mole Fraction Hexamer max (obsd)” value in data set [2] (setting [9]) was 91.8 ± 0.5%.

`O=Cc1ccc(Cl)c(Cl)c1` [3,4-Dichlorobenzaldehyde] returned an IC50 in data set [1] of 26.6 ± 2 µM. For the same compound, the “FAmin (minimum fractional activity derived from the titration)” value in data set [1] (setting [10]) amounted to 0%. In addition, in data set [2] (setting [9]), the “Mole Fraction Hexamer max (obsd)” value is listed as 30.4 ± 2.2%.

In the case of `O=Cc1cccc(Br)c1` [3-Bromobenzaldehyde], in data set [1], half-maximal inhibition (IC50) was put at 21.5 ± 3.5 µM and the “Inhibition of HsPBGS activity, in words” value was “very poor inhibitors of HsPBGS activity”. Also, the “FAmin (minimum fractional activity derived from the titration)” value in data set [1] (setting [10]) is on record as 80.8 ± 1.2%. The “Effect” value in data set [2] is listed as “very effective at stabilizing the HsPBGS hexamer”. In addition, the “Mole Fraction Hexamer max (obsd)” value in data set [2] (setting [9]) came to 89.9 ± 3.4%. Further, the “Result of initial screen (increase of mole fraction of hexamer)” value in data set [3] is “preliminary hits”.

Take `CC(=O)[O-].CC(=O)[O-].[Cd+2]` [Cadmium acetate]: the “FAmin (minimum fractional activity derived from the titration)” value in data set [1] (setting [10]) is 16.7 ± 4.0%. Also, the IC50 in data set [1] (setting [11]) is 3.6 ± 0.7 µM. Also, the “Mole Fraction Hexamer max (obsd)” value in data set [2] (setting [12]) is given as 92.2 ± 0.6 ^f %.

Regarding `[Cl][Cd][Cl]` [Cadmium chloride], the “FAmin (minimum fractional activity derived from the titration)” value in data set [1] (setting [10]) worked out at 9.2 ± 4.5%. The compound also gave an IC50 in data set [1] (setting [11]) of 6.9 ± 1.2 µM. In addition, the “Mole Fraction Hexamer max (obsd)” value in data set [2] (setting [12]) is recorded as 94.9 ± 3.3 ^f %.

As to `O=C1[C@H]2CC=CC[C@H]2C(=O)N1SC(Cl)(Cl)Cl` [Captan, (3aR,7aS)-2-[(trichloromethyl)sulfanyl]-3a,4,7,7a-tetrahydro-1H-isoindole-1,3(2H)-dione], in data set [1], the IC50 was determined as 3 ± 0.3 µM. In data set [1] (setting [10]), the “FAmin (minimum fractional activity derived from the titration)” value is given as 0%. Further, the “Mole Fraction Hexamer max (obsd)” value in data set [2] (setting [13]) was 72.3 ± 0.3% and 72.3 ± 0.2 ^d %.

In the case of `c1cc(OCC2CO2)cc(OCC2CO2)c1` (stereo not drawn) [Diglycidyl resorcinol ether], the IC50 in data set [1] was 36.3 ± 2.4 µM. Besides, the “FAmin (minimum fractional activity derived from the titration)” value in data set [1] (setting [10]) was determined as 0%. Besides, the “Mole Fraction Hexamer max (obsd)” value in data set [2] (setting [9]) turned out to be 87.4 ± 2.7%.

For `COC(=O)c1ccc(C=O)cc1` [Methyl-p-formyl benzoate], the “FAmin (minimum fractional activity derived from the titration)” value in data set [1] (setting [10]) came out at 0%. Moreover, the IC50 in data set [1] (setting [11]) was 40.3 ± 0.9 µM. For the same compound, the “Mole Fraction Hexamer max (obsd)” value in data set [2] (setting [9]) turned out to be 86.5 ± 1.4%.

For the compound `O=C1OC(O)C(C(Cl)Cl)=C1Cl` (stereo not drawn) [Mutagen X, 3-chloro-4-(dichloromethyl)-5-hydroxy-2(5H-furanone)], the “Inhibition potency relative to HsPBGS, in words” value in data set [4], in data set [5] and in data set [6] was “comparable potency” each time. Moreover, the “FAmin (minimum fractional activity derived from the titration)” value in data set [1] (setting [10]) stood at 0%. The compound further displayed an IC50 in data set [1] (setting [11]) of 1.4 ± 0.1 µM. The “Effect” value in data set [2] is reported as “increase the ratio of hexamer to octamer”.

`CNc1ccc(O)cc1.CNc1ccc(O)cc1.O=S(=O)(O)O` [N-methyl-p-aminophenol sulfate]: in data set [1] (setting [10]), the “FAmin (minimum fractional activity derived from the titration)” value was found to be 0%. For the same compound, it took 13.7 ± 1.3 µM to reach half-maximal inhibition in data set [1] (setting [11]) (IC50). Also, the “Mole Fraction Hexamer max (obsd)” value in data set [2] (setting [9]) is listed as 68.1 ± 0.9%.

Take `O=C1CN(/N=C/c2ccc([N+](=O)[O-])o2)C(=O)N1` [Nitrofurantoin, (E)-1-[(5-nitro-2-furyl)methylideneamino]imidazolidine-2,4-dione, reference compound]: the “Result of previous library screen” value in data set [7] is “not identified as a hit”. In data set [1], the “FAmin (minimum fractional activity derived from the titration)” value turned out to be 0% and half-maximal inhibition (IC50) was put at 5.9 ± 0.4 µM.

Consider `NC(=O)NN=Cc1ccc([N+](=O)[O-])o1` [Nitrofurazone, 5-nitro-2-furaldehyde semicarbazone, reference compound], for which the “Result of previous library screen” value in data set [7] is recorded as “identified as a hexamer-stabilizing HsPBGS inhibitor”. In addition, the “FAmin (minimum fractional activity derived from the titration)” value in data set [1] (setting [10]) is recorded as 0%. Moreover, the “Mole Fraction Hexamer max (obsd)” value is recorded as 48.5 ± 0.3 ^d % in data set [2] (setting [13]) and 48.5 ± 0.3% in data set [2] (at 2 mM compound (highest concentration, footnote d), listed as nitrofurazone).

In data set [1], `CC1=C2[C@H](/C=C(\C)C(=O)O)CC[C@@H](C)[C@H]2CC1` [Valerenic acid, (2E)-3-[(4S,7R,7aR)-3,7-dimethyl-2,4,5,6,7,7a-hexahydro-1H-inden-4-yl]-2-methylacrylic acid] yielded an IC50 of 8.2 ± 1.7 µM. Further, the “FAmin (minimum fractional activity derived from the titration)” value in data set [1] (setting [10]) was 33.2 ± 3.9%. Further, the “Mole Fraction Hexamer max (obsd)” value in data set [2] (setting [9]) was determined as 64.1 ± 0.9%. Besides, the “Result of initial screen (increase of mole fraction of hexamer)” value in data set [3] is reported as “preliminary hits”.

Consider `[Cd+2].[O-2]` [cadmium oxide], for which the “Solubility, in words” value in data set [8] is recorded as “insolubility in reagents compatible with the HsPBGS activity assay”. In addition, the “Result of initial screen (increase of mole fraction of hexamer)” value in data set [3] is “preliminary hits”.

With `N.N.[Cl][Pt][Cl]` [cis-Dichlorodiamine platinum, (SP-4-2)-diamminedichloridoplatinum, reference compound], the “FAmin (minimum fractional activity derived from the titration)” value in data set [1] (setting [10]) is reported as 0%. In data set [1] (setting [11]), this compound gave an IC50 of 17.1 ± 1.5 µM. The “Mole Fraction Hexamer max (obsd)” value in data set [2] (at 1 mM compound (footnote e), higher concentrations precipitate HsPBGS) is on record as 53.0 ± 0.8 ^e %.

`O=[N+]([O-])c1cccc(CCl)c1` [m-Nitrobenzyl chloride]: the “FAmin (minimum fractional activity derived from the titration)” value in data set [1] (setting [10]) worked out at 0%. Also, in data set [1] (setting [11]), the IC50 was 27.1 ± 2.2 µM. Also, the “Mole Fraction Hexamer max (obsd)” value in data set [2] (setting [9]) stood at 79.8 ± 1.3%.

Regarding `C=Cc1ccc(C=C)cc1` [p-divinyl benzene], in data set [8], the “Solubility, in words” value is recorded as “insolubility in reagents compatible with the HsPBGS activity assay”. The “Result of initial screen (increase of mole fraction of hexamer)” value in data set [3] is “preliminary hits”.

Take `O=C/C=C/c1ccccc1` [trans-cinnamaldehyde]: the “Result of initial screen (increase of mole fraction of hexamer)” value in data set [3] is listed as “preliminary hits”.
